One series relates to LNCaP WT. Nature of the series: LNCaP Proliferation Assay, LNCaP WT. Particulars: Homo sapiens, 96 h, 1% CSS, 4 days, CellTiter-Glo, normalized to 0.1 nM R1881 stimulation. In kind it is cell-based. On the procedure: (§1) LNCaP cells were expanded in RPMI 10% FBS in T150 flasks. The cells were dislodged with 0.25% Trypsin, washed in complete media, centrifuged (300 g, 3 min), and the supernatant aspirated. The cells were resuspended in RPMI phenol-red free media with 1% charcoal-stripped serum (CSS) and counted using a ViCELL (Beckman-Coulter). 7500 cells were added to each well of a white optical bottom 384-well plate and incubated for 2 days at 37° C. 5% CO2. Compound dilutions were prepared in RPMI CSS using 50 mM stock solutions and added to the cells either alone (agonist mode) or in combination with 0.1 nM R1881 (antagonist mode). The plates were incubated for 4 days, followed by addition of CellTiter-Glo Luminescent Cell Viability kit reagent (Promega). The plates were placed on a shaker at 3000 rpm for 10 minutes and then read on an EnVision plate reader (Perkin Elmer) using Luminescence assay default settings. The data was analyzed, normalized to 0.1 nM R1881 stimulation, and plotted in GraphPad Prism.
For orientation: In ATP-based viability assays light output follows the ATP content of the culture.

A further series relates to LNCaP F876L. The series can be described thus: LNCaP Proliferation Assay, LNCaP F876L. Particulars: Homo sapiens, 96 h, 1% CSS, 4 days, CellTiter-Glo, normalized to 0.1 nM R1881 stimulation. The series is classed as cell-based. Here is the method:
as §1

Where a name gives a salt, the structure may show the parent alone.

Turning to `N#Cc1ccc(N2C(=O)C3(CCC3)N(c3ccc(OC4CCNCC4)nc3)C2=S)cc1Cl` [Compound 23, 2-Chloro-4-(8-oxo-5-(6-(piperidin-4-yloxy)pyridin-3-yl)-6-thioxo-5,7-diazaspiro[3.4]octan-7-yl)benzonitrile hydrochloride], in the series on LNCaP WT, the IC50 was 3.19 µM.

In turn, `CN1CCC(Oc2ncc(N3C(=S)N(c4ccc(C#N)c(C(F)(F)F)c4)C(=O)C34CCC4)cn2)CC1` [Compound 16, 4-(5-(2-((1-Methylpiperidin-4-yl)oxy)pyrimidin-5-yl)-8-oxo-6-thioxo-5,7-diazaspiro[3.4]octan-7-yl)-2-(trifluoromethyl)benzonitrile] had a melting point of 161.9 °C.

With `CN1CCC(Oc2ccc(N3C(=S)N(c4ccc(C#N)c(Cl)c4)C(=O)C3(C)C)cn2)CC1` [Compound 10, 2-Chloro-4-(4,4-dimethyl-3-(6-((1-methylpiperidin-4-yl)oxy)pyridin-3-yl)-5-oxo-2-thioxoimidazolidin-1-yl)benzonitrile hydrochloride], the half-maximal inhibitory concentration (IC50) in the series with LNCaP WT worked out at 0.46 µM; with LNCaP F876L it was 0.83 µM. The compound `CN1CCC(Oc2ccc(N3C(=S)N(c4ccc(C#N)c(C(F)(F)F)c4)C(=O)C34CCC4)cc2)CC1` [Compound 12, 4-(5-(4-((1-Methylpiperidin-4-yl)oxy)phenyl)-8-oxo-6-thioxo-5,7-diazaspiro[3.4]octan-7-yl)-2-(trifluoromethyl)benzonitrile] gave a melting point of 99.3 °C. With `CN1CCC(Oc2ccc(N3C(=S)N(c4ccc(C#N)c(Cl)c4)C(=O)C34CCC4)cc2)CC1` [Compound 22, 2-Chloro-4-(5-(4-((1-methylpiperidin-4-yl)oxy)phenyl)-8-oxo-6-thioxo-5,7-diazaspiro[3.4]octan-7-yl)benzonitrile], the melting point was 152.2 °C. For the same compound, the half-maximal inhibitory concentration (IC50) in the series with LNCaP WT amounted to 2.83 µM. The IC50 with LNCaP F876L was determined as 3.78 µM. In the case of `CN1CCC(Oc2ccc(N3C(=S)N(c4ccc(C#N)c(C(F)(F)F)c4)C(=O)C3(C)C)cn2)CC1` [Compound 4, 4-(4,4-Dimethyl-3-(6-((1-methylpiperidin-4-yl)oxy)pyridin-3-yl)-5-oxo-2-thioxoimidazolidin-1-yl)-2-(trifluoromethyl)benzonitrile hydrochloride], the IC50 in the series on LNCaP WT was 0.46 µM; in the series on LNCaP F876L, 0.85 µM.

On to `N#Cc1ccc(N2C(=O)C3(CCC3)N(c3ccc(OC4CCNCC4)cc3)C2=S)cc1Cl` [Compound 21, 2-Chloro-4-(8-oxo-5-(4-(piperidin-4-yloxy)phenyl)-6-thioxo-5,7-diazaspiro[3.4]octan-7-yl)benzonitrile], for which the melting point was determined as 211 °C. For the same compound, the IC50 in the series with LNCaP WT was 2.23 µM. Further, the IC50 with LNCaP F876L amounted to 3.78 µM. Take `N#Cc1ccc(N2C(=O)C3(CCC3)N(c3cnc(OC4CCNCC4)nc3)C2=S)cc1C(F)(F)F` [Compound 15, 4-(8-Oxo-5-(2-(piperidin-4-yloxy)pyrimidin-5-yl)-6-thioxo-5,7-diazaspiro[3.4]octan-7-yl)-2-(trifluoromethyl)benzonitrile]: the melting point is 137.4 °C. Further, the half-inhibitory concentration (IC50) with LNCaP WT was 3.43 µM. Besides, the IC50 in the series with LNCaP F876L stood at 1.53 µM. As to `COc1cc(N2C(=O)C3(CCC3)N(c3ccc(OC4CCN(C)CC4)nc3)C2=S)ccc1C#N` [Compound 20, 2-Methoxy-4-(5-(6-((1-methylpiperidin-4-yl)oxy)pyridin-3-yl)-8-oxo-6-thioxo-5,7-diazaspiro[3.4]octan-7-yl)benzonitrile], the values for the IC50 in the series on LNCaP WT and with LNCaP F876L were 3.65 µM and 1.69 µM, respectively. For `COc1cc(N2C(=O)C3(CCC3)N(c3ccc(OC4CCN(C)CC4)cc3)C2=S)ccc1C#N` [Compound 19, 2-Methoxy-4-(5-(4-((1-methylpiperidin-4-yl)oxy)phenyl)-8-oxo-6-thioxo-5,7-diazaspiro[3.4]octan-7-yl)benzonitrile], in that order: 27.4 µM and 21.4 µM. On the same counts, the results for `Cc1cc(N2C(=O)C3(CCC3)N(c3ccc(OC4CCN(C)CC4)nc3)C2=S)ccc1C#N` [Compound 18, 2-Methyl-4-(5-(6-((1-methylpiperidin-4-yl)oxy)pyridin-3-yl)-8-oxo-6-thioxo-5,7-diazaspiro[3.4]octan-7-yl)benzonitrile] are 1.53 µM and 0.84 µM.

With `CN1CCC(Oc2ncc(N3C(=S)N(c4ccc(C#N)c(C(F)(F)F)c4)C(=O)C3(C)C)cn2)CC1` [Compound 6, 4-(4,4-Dimethyl-3-(2-((1-methylpiperidin-4-yl)oxy)pyrimidin-5-yl)-5-oxo-2-thioxoimidazolidin-1-yl)-2-(trifluoromethyl)benzonitrile], the melting point was 204.9 °C. Consider `CN1CCC(Oc2ccc(N3C(=S)N(c4ccc(C#N)c(C(F)(F)F)c4)C(=O)C3(C)C)cc2)CC1` [Compound 2, 4-(4,4-Dimethyl-3-(4-((1-methylpiperidin-4-yl)oxy)phenyl)-5-oxo-2-thioxoimidazolidin-1-yl)-2-(trifluoromethyl)benzonitrile hydrochloride], for which the IC50 in the series on LNCaP WT was 1.37 µM; in the series on LNCaP F876L it was 1.31 µM.

Consider `N#Cc1ccc(N2C(=O)C3(CCC3)N(c3ccc(OC4CCNCC4)nc3)C2=S)cc1C(F)(F)F` [Compound 13, 4-(8-Oxo-5-(6-(piperidin-4-yloxy)pyridin-3-yl)-6-thioxo-5,7-diazaspiro[3.4]octan-7-yl)-2-(trifluoromethyl)benzonitrile hydrochloride], for which the IC50 with LNCaP WT amounted to 109 µM. For the compound `N#Cc1ccc(N2C(=O)C3(CCC3)N(c3ccc(OC4CCNCC4)cc3)C2=S)cc1C(F)(F)F` [Compound 11, 4-(8-Oxo-5-(4-(piperidin-4-yloxy)phenyl)-6-thioxo-5,7-diazaspiro[3.4]octan-7-yl)-2-(trifluoromethyl)benzonitrile], the melting point was determined as 172.4 °C. The compound `CC1(C)C(=O)N(c2ccc(C#N)c(C(F)(F)F)c2)C(=S)N1c1cnc(OC2CCNCC2)nc1` [Compound 5, 4-(4,4-Dimethyl-5-oxo-3-(2-(piperidin-4-yloxy)pyrimidin-5-yl)-2-thioxoimidazolidin-1-yl)-2-(trifluoromethyl)benzonitrile] yielded a melting point of 239 °C. In addition, in the series on LNCaP WT, the IC50 stood at 1.04 µM. Moreover, the IC50 in the series on LNCaP F876L was 0.95 µM.

For the compound `CN1CCC(Oc2ccc(N3C(=S)N(c4ccc(C#N)c(C(F)(F)F)c4)C(=O)C34CCC4)cn2)CC1` [Compound 14, 4-(5-(6-((1-Methylpiperidin-4-yl)oxy)pyridin-3-yl)-8-oxo-6-thioxo-5,7-diazaspiro[3.4]octan-7-yl)-2-(trifluoromethyl)benzonitrile], the values for the IC50 in the series with LNCaP WT and in the series with LNCaP F876L were 2.44 µM and 1.25 µM, respectively. For the compound `CC1(C)C(=O)N(c2ccc(C#N)c(Cl)c2)C(=S)N1c1ccc(OC2CCNCC2)cc1` [Compound 7, 2-Chloro-4-(4,4-dimethyl-5-oxo-3-(4-(piperidin-4-yloxy)phenyl)-2-thioxoimidazolidin-1-yl)benzonitrile hydrochloride], the IC50 in the series on LNCaP WT stood at 10 µM; with LNCaP F876L, 31.2 µM.

In general, IC50 refers to the midpoint of a concentration-inhibition curve. A word on the melting point: it is the temperature of the solid-liquid transition.

The values above are taken from patent publication US20190337924A1, “SUBSTITUTED HYDANTOIN AND THIOHYDANTOIN DERIVATIVES AS ANDROGEN RECEPTOR ANTAGONISTS” (Janssen Pharmaceutica NV, priority 2016, published 2019).
